Numbers after ± are expanded uncertainties.
Experiment: mn = molality of the nth substance listed, in mol/kg
Conditions: 101.3 kPa, Liquid, Buoyancy - hydrostatic balance with magnetic suspension - one sinker

In the case of `O=S(=O)([O-])[O-].[O]=[V+2]` [oxovanadium(IV) sulfate] + O, the mass density (283.15 K, m1 = 0.5) is reported as 1074.6 ± 0.2 kg/m3, the mass density (283.15 K, m1 = 0.8) is reported as 1117.6 ± 0.3 kg/m3 and the mass density (283.15 K, m1 = 1) is reported as 1144.9 ± 0.3 kg/m3. For the same molecule, the mass density (283.15 K, m1 = 1.2) was 1171.8 ± 0.3 kg/m3, the mass density (283.15 K, m1 = 1.5) was 1211.3 ± 0.3 kg/m3 and the mass density (283.15 K, m1 = 1.8) was 1249.6 ± 0.4 kg/m3. The mass density (283.15 K, m1 = 2) was 1274.1 ± 0.4 kg/m3, the mass density (283.15 K, m1 = 2.2) was 1298.2 ± 0.4 kg/m3 and the mass density (283.15 K, m1 = 2.5) was 1333.7 ± 0.5 kg/m3. It also gave a mass density (283.15 K, m1 = 2.8) of 1367.1 ± 0.5 kg/m3, a mass density (283.15 K, m1 = 3) of 1389.5 ± 0.6 kg/m3 and a mass density (293.15 K, m1 = 0.5) of 1072.5 ± 0.2 kg/m3. The mass density (293.15 K, m1 = 0.8) was 1114.8 ± 0.3 kg/m3, the mass density (293.15 K, m1 = 1) was 1141.9 ± 0.3 kg/m3 and the mass density (293.15 K, m1 = 1.2) was 1169.5 ± 0.3 kg/m3. For the same molecule, the mass density (293.15 K, m1 = 1.5) was 1207.8 ± 0.3 kg/m3, the mass density (293.15 K, m1 = 1.8) was 1245.6 ± 0.3 kg/m3 and the mass density (293.15 K, m1 = 2) was 1270 ± 0.4 kg/m3. The mass density (293.15 K, m1 = 2.2) was 1293.9 ± 0.4 kg/m3, the mass density (293.15 K, m1 = 2.5) was 1329.3 ± 0.5 kg/m3 and the mass density (293.15 K, m1 = 2.8) was 1362.8 ± 0.5 kg/m3. It also gave a mass density (293.15 K, m1 = 3) of 1384.6 ± 0.6 kg/m3, a mass density (298.15 K, m1 = 0.5) of 1070.7 ± 0.2 kg/m3 and a mass density (298.15 K, m1 = 0.8) of 1113 ± 0.3 kg/m3. It also gave a mass density (298.15 K, m1 = 1) of 1139.8 ± 0.3 kg/m3, a mass density (298.15 K, m1 = 1.2) of 1167.2 ± 0.3 kg/m3 and a mass density (298.15 K, m1 = 1.5) of 1205.3 ± 0.3 kg/m3. For the same molecule, the mass density (298.15 K, m1 = 1.8) was 1242.9 ± 0.3 kg/m3, the mass density (298.15 K, m1 = 2) was 1267.4 ± 0.4 kg/m3 and the mass density (298.15 K, m1 = 2.2) was 1291.2 ± 0.4 kg/m3. For the same molecule, the mass density (298.15 K, m1 = 2.5) was 1326.5 ± 0.5 kg/m3, the mass density (298.15 K, m1 = 2.8) was 1359.8 ± 0.5 kg/m3 and the mass density (298.15 K, m1 = 3) was 1381.3 ± 0.6 kg/m3. For the same molecule, the mass density (303.15 K, m1 = 0.5) was 1068 ± 0.2 kg/m3, the mass density (303.15 K, m1 = 0.8) was 1110.7 ± 0.3 kg/m3 and the mass density (303.15 K, m1 = 1) was 1137.6 ± 0.3 kg/m3. It also gave a mass density (303.15 K, m1 = 1.2) of 1164.6 ± 0.3 kg/m3, a mass density (303.15 K, m1 = 1.5) of 1202.7 ± 0.3 kg/m3 and a mass density (303.15 K, m1 = 1.8) of 1240.4 ± 0.3 kg/m3. It also gave a mass density (303.15 K, m1 = 2) of 1264.7 ± 0.4 kg/m3, a mass density (303.15 K, m1 = 2.2) of 1288.8 ± 0.4 kg/m3 and a mass density (303.15 K, m1 = 2.5) of 1323.9 ± 0.5 kg/m3. It also gave a mass density (303.15 K, m1 = 2.8) of 1357.2 ± 0.5 kg/m3, a mass density (303.15 K, m1 = 3) of 1378.8 ± 0.6 kg/m3 and a mass density (313.15 K, m1 = 0.5) of 1065 ± 0.2 kg/m3. It also gave a mass density (313.15 K, m1 = 0.8) of 1106.6 ± 0.3 kg/m3, a mass density (313.15 K, m1 = 1) of 1133.3 ± 0.3 kg/m3 and a mass density (313.15 K, m1 = 1.2) of 1159.9 ± 0.3 kg/m3. For the same molecule, the mass density (313.15 K, m1 = 1.5) was 1198.3 ± 0.3 kg/m3, the mass density (313.15 K, m1 = 1.8) was 1235.3 ± 0.3 kg/m3 and the mass density (313.15 K, m1 = 2) was 1259.6 ± 0.4 kg/m3. It also gave a mass density (313.15 K, m1 = 2.2) of 1283.4 ± 0.4 kg/m3, a mass density (313.15 K, m1 = 2.5) of 1318.5 ± 0.4 kg/m3 and a mass density (313.15 K, m1 = 2.8) of 1351.6 ± 0.5 kg/m3. It also gave a mass density (313.15 K, m1 = 3) of 1373.4 ± 0.5 kg/m3, a mass density (323.15 K, m1 = 0.5) of 1060.4 ± 0.2 kg/m3 and a mass density (323.15 K, m1 = 0.8) of 1101.7 ± 0.3 kg/m3. For the same molecule, the mass density (323.15 K, m1 = 1) was 1128.4 ± 0.3 kg/m3, the mass density (323.15 K, m1 = 1.2) was 1154.7 ± 0.3 kg/m3 and the mass density (323.15 K, m1 = 1.5) was 1192.4 ± 0.3 kg/m3. For the same molecule, the mass density (323.15 K, m1 = 1.8) was 1229.9 ± 0.3 kg/m3, the mass density (323.15 K, m1 = 2) was 1253.9 ± 0.4 kg/m3 and the mass density (323.15 K, m1 = 2.2) was 1277.6 ± 0.4 kg/m3. For the same molecule, the mass density (323.15 K, m1 = 2.5) was 1312.7 ± 0.4 kg/m3, the mass density (323.15 K, m1 = 2.8) was 1345.6 ± 0.5 kg/m3 and the mass density (323.15 K, m1 = 3) was 1367.5 ± 0.5 kg/m3.
